Laboratory results taken from ChEMBL document CHEMBL3885881, “DrugMatrix”.

Species: Rattus norvegicus
Assay: DrugMatrix - Regimen: Daily Repeat
Format: toxicity, organism-based, Sprague-Dawley
Parameters: regimen Daily Repeat, gender Male, age 6-8 weeks
Settings: in vivo, po, route oral GAVAGE, […]; for ABSOLUTE BASOPHIL / ABSOLUTE EOSINOPHIL / ABSOLUTE LYMPHOCYTE / ABSOLUTE MONOCYTE / ABSOLUTE SEGMENTED NEUTROPHIL / BASOPHIL / EOSINOPHIL / ERYTHROCYTE COUNT / HEMATOCRIT / HEMOGLOBIN / LEUKOCYTE COUNT / LYMPHOCYTE / MEAN CORPUSCULAR HEMOGLOBIN / MEAN CORPUSCULAR HEMOGLOBIN CONCENTRATION / MEAN CORPUSCULAR VOLUME / MONOCYTE / NEUTROPHIL / NUCLEATED RED BLOOD CELLS / PLATELET COUNT: tissue Blood; for ALANINE AMINOTRANSFERASE / ALBUMIN / ALKALINE PHOSPHATASE / ASPARTATE AMINOTRANSFERASE / BLOOD UREA NITROGEN / CARBON DIOXIDE / CHLORIDE / CHOLESTEROL / CREATINE PHOSPHOKINASE / CREATININE / GLUCOSE / LACTATE DEHYDROGENASE / LIPASE / PHOSPHORUS / POTASSIUM / SODIUM / TOTAL BILIRUBIN / TOTAL PROTEIN / URIC ACID: tissue Plasma
[1] = 0 mg/kg, 72 h, dose level Control, time 3 day
[2] = 0 mg/kg, 120 h, dose level Control, time 5 day
[3] = 30 mg/kg, 72 h, dose level Low, time 3 day

## COC1=CC(=O)C[C@@H](C)[C@]12Oc1c(Cl)c(OC)cc(OC)c1C2=O [GRISEOFULVIN]
[1]
  ABSOLUTE BASOPHIL: 0 CELLS/uL
  ABSOLUTE EOSINOPHIL: 0 CELLS/uL
  ABSOLUTE LYMPHOCYTE: 14687.67 CELLS/uL
  ABSOLUTE MONOCYTE: 164 CELLS/uL
  ABSOLUTE SEGMENTED NEUTROPHIL: 1748.33 CELLS/uL
  BASOPHIL: 0%
  EOSINOPHIL: 0%
  ERYTHROCYTE COUNT: 5.51 x10E6/uL
  HEMATOCRIT: 33.68%
  HEMOGLOBIN: 13.4 G/DL
  LEUKOCYTE COUNT: 16.6 x10E3/uL
  LYMPHOCYTE: 88.83%
  MEAN CORPUSCULAR HEMOGLOBIN: 24.47 pg
  MEAN CORPUSCULAR HEMOGLOBIN CONCENTRATION: 39.82 G/DL
  MEAN CORPUSCULAR VOLUME: 61.23 fL
  MONOCYTE: 0.83%
  NEUTROPHIL: 10.33%
  NUCLEATED RED BLOOD CELLS: 0 /100WBC
  PLATELET COUNT: 1329.67 x10E3/uL
  ALANINE AMINOTRANSFERASE: 61.33 u/L
  ALBUMIN: 4.18 G/DL
  ALKALINE PHOSPHATASE: 332.5 u/L
  ASPARTATE AMINOTRANSFERASE: 98.33 u/L
  BLOOD UREA NITROGEN: 15.83 mg/dL
  CARBON DIOXIDE: 27.83 mmol/L
  CHLORIDE: 100 MEQ/L
  CHOLESTEROL: 76.17 mg/dL
  CREATINE PHOSPHOKINASE: 729.17 u/L
  CREATININE: 0.21 mg/dL
  GLUCOSE: 151.83 mg/dL
  LACTATE DEHYDROGENASE: 484.67 u/L
  LIPASE: 10 u/L
  PHOSPHORUS: 11.3 mg/dL
  POTASSIUM: 6.1 MEQ/L
  SODIUM: 142.9 MEQ/L
  TOTAL BILIRUBIN: 0.23 mg/dL
  TOTAL PROTEIN: 5.68 G/DL
  URIC ACID: 1.75 mg/dL
[2]
  ABSOLUTE BASOPHIL: 0 CELLS/uL
  ABSOLUTE EOSINOPHIL: 58.67 CELLS/uL
  ABSOLUTE LYMPHOCYTE: 15950.83 CELLS/uL
  ABSOLUTE MONOCYTE: 172.5 CELLS/uL
  ABSOLUTE SEGMENTED NEUTROPHIL: 2551.33 CELLS/uL
  BASOPHIL: 0%
  EOSINOPHIL: 0.33%
  ERYTHROCYTE COUNT: 5.5 x10E6/uL
  HEMATOCRIT: 34.05%
  HEMOGLOBIN: 13.42 G/DL
  LEUKOCYTE COUNT: 18.73 x10E3/uL
  LYMPHOCYTE: 84.5%
  MEAN CORPUSCULAR HEMOGLOBIN: 24.42 pg
  MEAN CORPUSCULAR HEMOGLOBIN CONCENTRATION: 39.42 G/DL
  MEAN CORPUSCULAR VOLUME: 61.97 fL
  MONOCYTE: 1%
  NEUTROPHIL: 14.17%
  NUCLEATED RED BLOOD CELLS: 0.33 /100WBC
  PLATELET COUNT: 1143.17 x10E3/uL
  ALANINE AMINOTRANSFERASE: 57 u/L
  ALBUMIN: 4.17 G/DL
  ALKALINE PHOSPHATASE: 347.33 u/L
  ASPARTATE AMINOTRANSFERASE: 93.67 u/L
  BLOOD UREA NITROGEN: 15.67 mg/dL
  CARBON DIOXIDE: 27.17 mmol/L
  CHLORIDE: 104.33 MEQ/L
  CHOLESTEROL: 69.5 mg/dL
  CREATINE PHOSPHOKINASE: 317.17 u/L
  CREATININE: 0.2 mg/dL
  GLUCOSE: 162.33 mg/dL
  LACTATE DEHYDROGENASE: 408.67 u/L
  LIPASE: 10.17 u/L
  PHOSPHORUS: 11.08 mg/dL
  POTASSIUM: 6.36 MEQ/L
  SODIUM: 146.07 MEQ/L
  TOTAL BILIRUBIN: 0.22 mg/dL
  TOTAL PROTEIN: 5.92 G/DL
  URIC ACID: 1.47 mg/dL
[3]
  ABSOLUTE BASOPHIL: 0 CELLS/uL
  ABSOLUTE EOSINOPHIL: 0 CELLS/uL
  ABSOLUTE LYMPHOCYTE: 15609 CELLS/uL
  ABSOLUTE MONOCYTE: 50.67 CELLS/uL
  ABSOLUTE SEGMENTED NEUTROPHIL: 2173.67 CELLS/uL
  BASOPHIL: 0%
  EOSINOPHIL: 0%
  ERYTHROCYTE COUNT: 5.42 x10E6/uL
  HEMATOCRIT: 34.33%
  HEMOGLOBIN: 13.33 G/DL
  LEUKOCYTE COUNT: 17.83 x10E3/uL
  LYMPHOCYTE: 87.67%
  MEAN CORPUSCULAR HEMOGLOBIN: 24.6 pg
  MEAN CORPUSCULAR HEMOGLOBIN CONCENTRATION: 38.9 G/DL
  MEAN CORPUSCULAR VOLUME: 63.3 fL
  MONOCYTE: 0.33%
  NEUTROPHIL: 12%
  NUCLEATED RED BLOOD CELLS: 0 /100WBC
  PLATELET COUNT: 1271.33 x10E3/uL
  ALANINE AMINOTRANSFERASE: 68.33 u/L
  ALBUMIN: 3.87 G/DL
  ALKALINE PHOSPHATASE: 322.67 u/L
  ASPARTATE AMINOTRANSFERASE: 105.67 u/L
  BLOOD UREA NITROGEN: 16 mg/dL
  CARBON DIOXIDE: 30.33 mmol/L
  CHLORIDE: 103 MEQ/L
  CHOLESTEROL: 72.67 mg/dL
  CREATINE PHOSPHOKINASE: 481 u/L
  CREATININE: 0.24 mg/dL
  GLUCOSE: 139.67 mg/dL
  LACTATE DEHYDROGENASE: 535 u/L
  LIPASE: 10 u/L
  PHOSPHORUS: 11.37 mg/dL
  POTASSIUM: 6.77 MEQ/L
  SODIUM: 145.27 MEQ/L
  TOTAL BILIRUBIN: 0.2 mg/dL
  TOTAL PROTEIN: 5.3 G/DL
  URIC ACID: 1.6 mg/dL
